# Measurements as given in ChEMBL document CHEMBL6153110, “Peptide Double-Stapling and Arginine N-Glycosylation Triggered the Development of Therapeutic Antimicrobial Peptides Capable of Killing Drug-Resistant Bacteria in Mice” (J Med Chem, 2025).
# Calls of active or inactive are those of the source. No cut-off for these calls is given here. Residues, ends and D or L forms follow the SMILES beside them.
# Legend:
# Cell membrane [1] = assay: Binding affinity to Klebsiella pneumoniae ATCC 13883 cell membrane treated with FITC labelled peptides at MIC measured after 1.5 hr by CLSM imaging analysis; assay type: subcellular
# [2] = Toxicity in mouse skin assessed as abscesses and visual lesions at 40 mg/kg, sc by histological analysis; assay type: organism-based; conditions: in vivo
# Cell membrane [3] = assay: Induction of cell membrane damage in methicillin-resistant Staphylococcus aureus ATCC 43300 assessed as increase in green fluorescence at MIC measured after 1 hr incubation by SYTO9 confocal microscopy; assay type: subcellular
# Staphylococcus aureus [4] = assay: In vivo antibacterial activity against methicillin-resistant Staphylococcus aureus ATCC 43300 infected locally in full thickness skin wound mouse model assessed as reduction in bacterial load in skin wound at 1 mg/kg treated with absorbable gelatin sponge measured after 7 days; assay type: functional, organism-based; conditions: time 7.0 day
# Cell membrane [5] = assay: Induction of cell membrane damage in Klebsiella pneumoniae ATCC 13883 assessed as increase in red fluorescence at MIC measured after 1 hr incubation by PI based confocal microscopy; assay type: subcellular
# Staphylococcus aureus [6] = assay: Antibiofilm activity in methicillin-resistant Staphylococcus aureus ATCC 43300 assessed as reduction in biofilm formation at 37.2 ug/ml measured after 24 hrs by crystal violet staining based assay relative to control; assay type: functional; parameters: scale not given: the % may be the effect or the level left; conditions: dose 37.2 µg/ml
# [7] = Toxicity in mouse assessed as intramuscular injury at 40 mg/kg, sc by H and E staining based assay; assay type: organism-based; conditions: in vivo
# Streptococcus pneumoniae = assay: Antimicrobial activity against Streptococcus pneumoniae ATCC 49619 assessed as growth inhibition measured after 8 hrs incubation by standard broth dilution assay; assay type: functional
# [8] = Toxicity in mouse assessed as fasciculus necrosis at 40 mg/kg, sc by H and E staining based assay; assay type: organism-based; conditions: in vivo
# Cell membrane [9] = assay: Induction of cell membrane damage in Klebsiella pneumoniae ATCC 13883 assessed as significant plasma membrane rupture, cytosolic membrane and outer membrane separation, and cytoplasmic leakage at MIC measured after 1 hr incubation by Transmission electron microscopy; assay type: subcellular
# Cell membrane [10] = assay: Induction of cell membrane damage in methicillin-resistant Staphylococcus aureus ATCC 43300 assessed as corrugation, blebbing, breakage, and fragmentation at MIC measured after 1 hr incubation by Scanning electron microscopy; assay type: subcellular
# Klebsiella pneumoniae [11] = assay: Antibiofilm activity in Klebsiella pneumoniae ATCC 13883 assessed as reduction in biofilm formation at 150 ug/ml measured after 24 hrs by crystal violet staining based assay relative to control; assay type: functional; parameters: scale not given: the % may be the effect or the level left; conditions: dose 150 µg/ml
# Cell membrane [12] = assay: Induction of cell membrane damage in Klebsiella pneumoniae ATCC 13883 assessed as increase in green fluorescence at MIC measured after 1 hr incubation by SYTO9 confocal microscopy; assay type: subcellular
# Cell membrane [13] = assay: Induction of cell membrane damage in methicillin-resistant Staphylococcus aureus ATCC 43300 assessed as significant plasma membrane rupture, […], and cytoplasmic leakage at MIC measured after 1 hr incubation by Transmission electron microscopy; assay type: subcellular
# Klebsiella pneumoniae [14] = assay: In vivo antibacterial activity against Klebsiella pneumoniae ATCC 13883 induced bacterial pneumonia mouse model assessed as reduction in bacterial infection induced weight loss at 1 mg/kg, injected into trachea after 24 hrs of infection measured after 3 to 7 days; assay type: functional, organism-based
# Klebsiella pneumoniae [15] = assay: In vivo antibacterial activity against Klebsiella pneumoniae ATCC 13883 induced bacterial pneumonia mouse model assessed as reduction in bacterial infection induced weight loss at 4 mg/kg, injected into trachea after 24 hrs of infection measured after 3 to 7 days; assay type: functional, organism-based
# Staphylococcus aureus [16] = assay: In vivo antibacterial activity against methicillin-resistant Staphylococcus aureus ATCC 43300 infected locally in full thickness skin wound mouse model assessed as reduction in bacterial load in skin wound at 4 mg/kg treated with absorbable gelatin sponge measured after 7 days; assay type: functional, organism-based; conditions: time 7.0 day
# Cell membrane [17] = assay: Induction of cell membrane damage in methicillin-resistant Staphylococcus aureus ATCC 43300 assessed as increase in red fluorescence at MIC measured after 1 hr incubation by PI based assay; assay type: subcellular
# Staphylococcus aureus [18] = assay: In vivo antibacterial activity against methicillin-resistant Staphylococcus aureus ATCC 43300 infected locally in full thickness skin wound mouse model assessed as reduction in bacterial load in skin wound at 4 mg/kg treated with absorbable gelatin sponge measured after 3 days; assay type: functional, organism-based; conditions: time 3.0 day
# Pseudomonas aeruginosa = assay: Antimicrobial activity against Pseudomonas aeruginosa ATCC 27853 assessed as growth inhibition measured after 8 hrs incubation by standard broth dilution assay; assay type: functional
# Staphylococcus aureus [19] = assay: In vivo antibacterial activity against methicillin-resistant Staphylococcus aureus ATCC 43300 infected locally in full thickness skin wound mouse model assessed as reduction in bacterial load in skin wound at 1 mg/kg treated with absorbable gelatin sponge measured after 3 days; assay type: functional, organism-based; conditions: time 3.0 day
# Staphylococcus aureus [20] = assay: Antimicrobial activity against methicillin-resistant Staphylococcus aureus ATCC 43300 assessed as growth inhibition measured after 8 hrs incubation by standard broth dilution assay; assay type: functional
# Cell membrane [21] = assay: Induction of cell membrane damage in Klebsiella pneumoniae ATCC 13883 assessed as corrugation, blebbing, breakage, and fragmentation at MIC measured after 1 hr incubation by Scanning electron microscopy; assay type: subcellular
# Staphylococcus aureus [22] = assay: In vivo antibacterial activity against methicillin-resistant Staphylococcus aureus ATCC 43300 infected locally in full thickness skin wound mouse model assessed as reduced skin damage by promoting wound healing at 4 mg/kg treated with absorbable gelatin sponge measured on early healing stage; assay type: functional, organism-based; conditions: route id
# Klebsiella pneumoniae [23] = assay: Antimicrobial activity against Klebsiella pneumoniae ATCC 13883 assessed as growth inhibition measured after 8 hrs incubation by standard broth dilution assay; assay type: functional
# Staphylococcus aureus [24] = assay: In vivo antibacterial activity against methicillin-resistant Staphylococcus aureus ATCC 43300 infected locally in full thickness skin wound mouse model assessed as clean and less exudate at 1 mg/kg treated with absorbable gelatin sponge measured on early healing stage; assay type: functional, organism-based; conditions: route id
# Cell membrane [25] = assay: Binding affinity to methicillin-resistant Staphylococcus aureus ATCC 43300 cell membrane treated with FITC labelled peptides at MIC measured after 1.5 hr by CLSM imaging analysis; assay type: subcellular
smiles,measurement,setting,value
CC(=O)N[C@@H](CC(C)C)C(=O)N[C@@H](CCCCN)C(=O)N[C@@H](CCCNC(=N)N)C(=O)N[C@H](C(=O)N[C@@H](Cc1c[nH]c2ccccc12)C(=O)N[C@@H](CCCCN)C(=O)N[C@@H](CCCNC(=N)N)C(=O)N[C@H](C(=O)N[C@@H](Cc1ccccc1)C(=O)N[C@@H](CCCCN)C(=O)N[C@@H](CC(C)C)C(=O)N[C@@H](CC(C)C)C(=O)N[C@@H](CCCCN)C(=O)N[C@@H](CCCNC(=N)N)C(=O)N[C@@H](Cc1ccc(O)cc1)C(=O)N[C@@H](Cc1c[nH]c2ccccc12)C(=O)N[C@@H](CCCNC(=N)N)C(=O)N[C@@H](CCC(N)=O)C(=O)N[C@@H](CC(C)C)C(=O)N[C@@H](CCCCN)C(=O)N[C@@H](CCCCN)C(=O)N1CCC[C@H]1C(=O)N[C@H](C(=O)N[C@@H](CCCNC(=N)N)C(N)=O)C(C)C)C(C)C)C(C)C (Ac-LKRVWKRVFKLLKRYWRQLKKPVR-NH2),Activity,Cell membrane [1],Active
same,Activity,[2],Toxic
same,Activity,Cell membrane [3],Active
same,Activity,Staphylococcus aureus [4],Active
same,Activity,Cell membrane [5],Active
same,Activity,Staphylococcus aureus [6],77.25%
same,Activity,[7],Toxic
same,MIC,Streptococcus pneumoniae,4.7 µg/mL
same,Activity,[8],Toxic
same,Activity,Cell membrane [9],Active
same,Activity,Cell membrane [10],inactive
same,Activity,Klebsiella pneumoniae [11],86.42%
same,Activity,Cell membrane [12],Active
same,Activity,Cell membrane [13],Active
same,Activity,Klebsiella pneumoniae [14],Active
same,Activity,Klebsiella pneumoniae [15],Active
same,Activity,Staphylococcus aureus [16],Active
same,Activity,Cell membrane [17],Active
same,Activity,Staphylococcus aureus [18],Active
same,MIC,Pseudomonas aeruginosa,4.9 µg/mL
same,Activity,Staphylococcus aureus [19],Active
same,MIC,Staphylococcus aureus [20],9.7 µg/mL
same,Activity,Cell membrane [21],inactive
same,Activity,Staphylococcus aureus [22],Active
same,MIC,Klebsiella pneumoniae [23],38 µg/mL
same,Activity,Staphylococcus aureus [24],Active; Model Group Showed Yellowish Compared With The Wounds Treated With Compound
same,Activity,Cell membrane [25],Active
